Among the data in patent publication US12486302B2, “Somatostatin receptor antagonist compounds and methods of using the same” (CDRD VENTURES INC., priority 2016, dated 2025) are IC50 values, retold here.

*1 amine or outer side, *2 acyl side, *3 side chain or, on linkers, in order; H or OH if unused. Where a SMILES comes first, the peptide text is derived from it. Bridges are numbered along the chain shown (N, C = ends). Triazole bridges read from a SMILES are 1,4-linked. Side-chain parts run from the residue outwards. [ ]: non-standard residue; d: D form. The star is where a group is joined. ξ: configuration not given here. dPhe(4-CONH2) = NC(=O)c1ccc(C[C@@H](N)C(=O)O)cc1; dPhe(4-CN) = N#Cc1ccc(C[C@@H](N)C(=O)O)cc1; dPhe(4-NH2) = Nc1ccc(C[C@@H](N)C(=O)O)cc1; Phe(4-Cl) = N[C@@H](Cc1ccc(Cl)cc1)C(=O)O; dDap(N3) = [N-]=[N+]=NC[C@@H](N)C(=O)O; Dap(N3) = [N-]=[N+]=NC[C@H](N)C(=O)O; NMeY = CN[C@@H](Cc1ccc(O)cc1)C(=O)O; NMeT = CN[C@H](C(=O)O)[C@@H](C)O; Lys(Me) = CNCCCC[C@H](N)C(=O)O; Thr(3ξ) = CC(O)[C@H](N)C(=O)O; NMeK = CN[C@@H](CCCCN)C(=O)O; dPra = C#CC[C@@H](N)C(=O)O; NMeC = CN[C@@H](CS)C(=O)O; MeOSuc = COC(=O)CCC(=O)*; Pra = C#CC[C@H](N)C(=O)O; dDap = NC[C@@H](N)C(=O)O; 2Furoyl = O=C(c1ccco1)*; Dap = NC[C@H](N)C(=O)O; CO = O=C([*:1])[*:2]; NHPh = c1ccc(N*)cc1

In general, IC50 refers to the midpoint of a concentration-inhibition curve. A higher IC50 goes with lower potency.

The target in this test is somatostatin type 2 (SSTR2) receptors (Homo sapiens, UniProt P30874). Kind of test: PathHunter β-Arrestin assay, antagonist mode, SSTR2. The class given is cell-based. The note with it: agonist challenge at EC80. As for the experimental part: The PathHunter® β-Arrestin assay monitors the activation of a GPCR in a homogenous, non-imaging assay format using a technology developed by DiscoveRx called Enzyme Fragment Complementation (EFC) with β-galactosidase (β-Gal) as the functional reporter. […] EA is fused to β-Arrestin and […] is fused to the GPCR of interest. When the GPCR is activated and β-Arrestin is recruited to the receptor, ED and EA complementation occurs, restoring β-Gal activity which is measured using chemiluminescent PathHunter® Detection Reagents. For antagonist determination, cells were pre-incubated with the compounds followed by agonist challenge at the EC80 concentration. Data was normalized to the maximal and minimal response observed in the presence of EC80 ligand and vehicle. Compound activity was analyzed using CBIS data analysis suite ChemInnovation, CA). Percentage inhibition was calculated using the following formula: % Inhibition=100%×(1−(mean signal of test sample-mean signal of vehicle control)/(mean signal of EC80 control-mean signal of vehicle control)). Percentage inhibition was calculated at 10 concentrations in steps on a Log 3 scale ranging from […] to 5e-5 μM. The results were plotted for IC50 calculation.
Sequence of somatostatin type 2 (SSTR2) receptors (P30874 whole entry, the tested form may be a part): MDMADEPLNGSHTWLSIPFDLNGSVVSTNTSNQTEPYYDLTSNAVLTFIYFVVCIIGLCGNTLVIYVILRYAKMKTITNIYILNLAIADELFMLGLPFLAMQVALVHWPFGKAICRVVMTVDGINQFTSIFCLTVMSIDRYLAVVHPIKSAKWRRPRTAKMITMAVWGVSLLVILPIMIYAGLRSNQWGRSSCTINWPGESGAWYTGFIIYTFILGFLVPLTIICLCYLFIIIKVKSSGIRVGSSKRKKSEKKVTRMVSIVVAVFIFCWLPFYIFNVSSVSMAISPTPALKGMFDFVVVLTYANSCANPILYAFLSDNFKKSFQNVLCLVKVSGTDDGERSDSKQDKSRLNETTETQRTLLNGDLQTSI
On to `CNCCCC[C@@H]1NC(=O)[C@@H](Cc2ccc(C(N)=O)cc2)NC(=O)[C@H](Cc2ccc(O)cc2)NC(=O)[C@H](NC(=O)[C@H](Cc2ccc(Cl)cc2)NC(=O)c2ccco2)CSSC[C@@H](C(=O)N[C@H](Cc2ccc(O)cc2)C(N)=O)NC(=O)[C@H]([C@@H](C)O)NC1=O` [Compound 57, (Furan-2-carboxy)-Cpa-cyclo[D-Cys-Tyr-D-Phe(4-carbamoyl)-Lys(N^ε-Me)-Thr-Cys]-D-Tyr-NH2] (2Furoyl-[Phe(4-Cl)][dC]Y[dPhe(4-CONH2)][Lys(Me)]TC[dY]-NH2; disulfide 2-7), for which the IC50 stood at 3.65 nM.

Turning to `CNCCCC[C@@H]1NC(=O)[C@@H](Cc2ccc(C(N)=O)cc2)NC(=O)[C@H](Cc2ccc(O)cc2)NC(=O)[C@H](NC(=O)[C@H](Cc2ccc(Cl)cc2)NC(=O)CCC(=O)OC)CSSC[C@@H](C(=O)N[C@H](Cc2ccc(O)cc2)C(N)=O)NC(=O)[C@H]([C@@H](C)O)NC1=O` [Compound 58, CH3O2C(CH2)2(CO)-Cpa-cyclo[D-Cys-Tyr-D-Phe(4-carbamoyl)-Lys(N^ε-Me)-Thr-Cys]-D-Tyr-NH2] (MeOSuc-[Phe(4-Cl)][dC]Y[dPhe(4-CONH2)][Lys(Me)]TC[dY]-NH2; disulfide 2-7), the IC50 stood at 2.36 nM.

As for `C[C@@H](O)[C@@H]1NC(=O)[C@H](CCCCN)NC(=O)[C@@H](Cc2ccc(C#N)cc2)NC(=O)[C@H](Cc2ccc(O)cc2)NC(=O)[C@H](NC(=O)[C@@H](N)Cc2ccc(Cl)cc2)CSSC[C@@H](C(=O)N[C@H](Cc2ccc(O)cc2)C(N)=O)NC1=O` [Compound 59, H-Cpa-[DCys- Tyr-DPhe(4-CN)- Lys-Thr-Cys]- DTyr-NH2] (H-[Phe(4-Cl)][dC]Y[dPhe(4-CN)]KTC[dY]-NH2; disulfide 2-7), the IC50 was found to be 39.1 nM.

`CC(O)[C@@H]1NC(=O)[C@H](CCCCN)NC(=O)[C@@H](Cc2ccc(C(N)=O)cc2)NC(=O)[C@H](Cc2ccc(O)cc2)NC(=O)[C@H](NC(=O)[C@@H](N)Cc2ccc(Cl)cc2)CNC(=O)SC[C@@H](C(=O)N[C@H](Cc2ccc(O)cc2)C(N)=O)NC1=O` (stereo partly drawn) [Compound 60, H-Cpa-cyclo [DDap-Tyr- DPhe(4-CONH2)- Lys-Thr-Cys]- DTyr-NH2] registered an IC50 above 1000 nM.

For the compound `CC(O)[C@@H]1NC(=O)[C@H](CCCCN)NC(=O)[C@@H](Cc2ccc(C(N)=O)cc2)NC(=O)[C@H](Cc2ccc(O)cc2)NC(=O)[C@H](NC(=O)[C@@H](N)Cc2ccc(Cl)cc2)CSC(=O)NC[C@@H](C(=O)N[C@H](Cc2ccc(O)cc2)C(N)=O)NC1=O` (stereo partly drawn) [Compound 62, H-Cpa-cyclo[DCys- Tyr-DPhe(4- CONH2)- Lys-Thr-Dap]- DTyr-NH2] (H-[Phe(4-Cl)][dC]Y[dPhe(4-CONH2)]K[Thr(3ξ)][Dap][dY]-NH2; linker 2-7 via CO), the IC50 is above 1000 nM.

Turning to `CNCCCC[C@@H]1NC(=O)[C@@H](Cc2ccc(C(N)=O)cc2)NC(=O)[C@H](Cc2ccc(O)cc2)NC(=O)[C@H](NC(=O)[C@@H](N)Cc2ccc(Cl)cc2)CSC(=O)NC[C@@H](C(=O)N[C@H](Cc2ccc(O)cc2)C(N)=O)NC(=O)[C@H](C(C)O)NC1=O` (stereo partly drawn) [Compound 63, H-Cpa-cyclo [DCys-Tyr-DPhe (4-CONH2)- Lys(Me)-Thr-Dap]- DTyr-NH2] (H-[Phe(4-Cl)][dC]Y[dPhe(4-CONH2)][Lys(Me)][Thr(3ξ)][Dap][dY]-NH2; linker 2-7 via CO), the IC50 was above 1000 nM.

Consider `C[C@@H](O)[C@@H]1NC(=O)[C@H](CCCCN)NC(=O)[C@@H](Cc2ccc(C(N)=O)cc2)NC(=O)[C@H](Cc2ccc(O)cc2)NC(=O)[C@H](NC(=O)[C@@H](N)Cc2ccc(Cl)cc2)Cn2cc(nn2)C[C@@H](C(=O)N[C@H](Cc2ccc(O)cc2)C(N)=O)NC1=O` [Compound 64] (H-[Phe(4-Cl)][dDap(N3)]Y[dPhe(4-CONH2)]KT[Pra][dY]-NH2; triazole 2-7), for which the IC50 was above 1000 nM.

Turning to `C[C@@H](O)[C@@H]1NC(=O)[C@H](CCCCN)NC(=O)[C@@H](Cc2ccc(C(N)=O)cc2)NC(=O)[C@H](Cc2ccc(O)cc2)NC(=O)[C@@H](NC(=O)[C@@H](N)Cc2ccc(Cl)cc2)Cc2cn(nn2)C[C@@H](C(=O)N[C@H](Cc2ccc(O)cc2)C(N)=O)NC1=O` [Compound 65] (H-[Phe(4-Cl)][Pra]Y[dPhe(4-CONH2)]KT[Dap(N3)][dY]-NH2; triazole 2-7), the IC50 is 688 nM.

`C[C@@H](O)[C@@H]1NC(=O)[C@H](CCCCN)NC(=O)[C@@H](Cc2ccc(C(N)=O)cc2)NC(=O)[C@H](Cc2ccc(O)cc2)NC(=O)[C@H](NC(=O)[C@@H](N)Cc2ccc(Cl)cc2)Cc2cn(nn2)C[C@@H](C(=O)N[C@H](Cc2ccc(O)cc2)C(N)=O)NC1=O` [Compound 66] (H-[Phe(4-Cl)][dPra]Y[dPhe(4-CONH2)]KT[Dap(N3)][dY]-NH2; triazole 2-7): the IC50 is above 1000 nM.

Take `C[C@@H](O)[C@@H]1NC(=O)[C@H](CCCCN)NC(=O)[C@@H](Cc2ccc(C(N)=O)cc2)NC(=O)[C@H](Cc2ccc(O)cc2)NC(=O)[C@H](NC(=O)[C@@H](N)Cc2ccc(Cl)cc2)CC=CC[C@@H](C(=O)N[C@H](Cc2ccc(O)cc2)C(N)=O)NC1=O` [Compound 67]: the IC50 was above 1000 nM.

Compound `C[C@@H](O)[C@@H]1NC(=O)[C@H](CCCCN)NC(=O)[C@@H](Cc2ccc(C(N)=O)cc2)NC(=O)[C@H](Cc2ccc(O)cc2)NC(=O)[C@H](NC(=O)[C@@H](N)Cc2ccc(Cl)cc2)CNC(=O)C[C@@H](C(=O)N[C@H](Cc2ccc(O)cc2)C(N)=O)NC1=O` [Compound 69, H-Cpa-cyclo [DDap-Tyr- DPhe(4-CONH2)- Lys-Thr-Asp]- DTyr-NH2] (H-[Phe(4-Cl)][dDap]Y[dPhe(4-CONH2)]KTD[dY]-NH2; lactam 2-7) came in with a 50% inhibitory concentration (IC50) above 1000 nM.

`C[C@@H](O)[C@@H]1NC(=O)[C@H](CCCCN)NC(=O)[C@@H](Cc2ccc(NC(=O)Nc3ccccc3)cc2)NC(=O)[C@H](Cc2ccc(O)cc2)NC(=O)[C@H](NC(=O)[C@@H](N)Cc2ccc(Cl)cc2)CNC(=O)C[C@@H](C(=O)N[C@H](Cc2ccc(O)cc2)C(N)=O)NC1=O` [Compound 70] (H-[Phe(4-Cl)][dDap]Y[dPhe(4-NH2)]([CO-NHPh])KTD[dY]-NH2; lactam 2-7) yielded an IC50 above 1000 nM.

`CNCCCC[C@@H]1NC(=O)[C@@H](Cc2ccc(C(N)=O)cc2)NC(=O)[C@H](Cc2ccc(O)cc2)NC(=O)[C@H](NC(=O)[C@@H](N)Cc2ccc(Cl)cc2)CNC(=O)C[C@@H](C(=O)N[C@H](Cc2ccc(O)cc2)C(N)=O)NC(=O)[C@H]([C@@H](C)O)NC1=O` [Compound 71, H-Cpa-cyclo [DDap-Tyr- DPhe(4-CONH2)- Lys(Me)-Thr- Asp]-DTyr-NH2] (H-[Phe(4-Cl)][dDap]Y[dPhe(4-CONH2)][Lys(Me)]TD[dY]-NH2; lactam 2-7) had an IC50 of 13.3 nM. In other words, the double-digit nanomolar range.

For `C[C@@H](O)[C@@H]1NC(=O)[C@H](CCCCN)N(C)C(=O)[C@@H](Cc2ccc(C(N)=O)cc2)NC(=O)[C@H](Cc2ccc(O)cc2)NC(=O)[C@H](NC(=O)[C@@H](N)Cc2ccc(Cl)cc2)CSSC[C@@H](C(=O)N[C@H](Cc2ccc(O)cc2)C(N)=O)NC1=O` [Compound 72, H-Cpa-cyclo[DCys- Tyr-D-(4- carbamoyl)Phe- (N-alpha-Me)Lys- Thr-Cys]- DTyr-NH2] (H-[Phe(4-Cl)][dC]Y[dPhe(4-CONH2)][NMeK]TC[dY]-NH2; disulfide 2-7), the IC50 came to 5.77 nM.

On to `C[C@@H](O)[C@H]1C(=O)N[C@H](C(=O)N[C@H](Cc2ccc(O)cc2)C(N)=O)CSSC[C@@H](NC(=O)[C@@H](N)Cc2ccc(Cl)cc2)C(=O)N[C@@H](Cc2ccc(O)cc2)C(=O)N[C@H](Cc2ccc(C(N)=O)cc2)C(=O)N[C@@H](CCCCN)C(=O)N1C` [Compound 73, H-Cpa-[DCys-Tyr- DPhe(4-carbamoyl)- Lys-NMeThr- Cys]-DTyr-NH2] (H-[Phe(4-Cl)][dC]Y[dPhe(4-CONH2)]K[NMeT]C[dY]-NH2; disulfide 2-7), for which the IC50 was 547 nM.

With `C[C@@H](O)[C@@H]1NC(=O)[C@H](CCCCN)NC(=O)[C@@H](Cc2ccc(C(N)=O)cc2)NC(=O)[C@H](Cc2ccc(O)cc2)N(C)C(=O)[C@H](NC(=O)[C@@H](N)Cc2ccc(Cl)cc2)CSSC[C@@H](C(=O)N[C@H](Cc2ccc(O)cc2)C(N)=O)NC1=O` [Compound 74, H-Cpa-[DCys- NMeTyr-DPhe (4-carbamoyl)- Lys-Thr-Cys]- DTyr-NH2] (H-[Phe(4-Cl)][dC][NMeY][dPhe(4-CONH2)]KTC[dY]-NH2; disulfide 2-7), the IC50 stood at 159 nM. This IC50 lies about 3.4-fold lower than the previous one.

Regarding `C[C@@H](O)[C@H]1C(=O)N[C@H](C(=O)N[C@H](Cc2ccc(O)cc2)C(N)=O)CSSC[C@@H](NC(=O)[C@@H](N)Cc2ccc(Cl)cc2)C(=O)N(C)[C@@H](Cc2ccc(O)cc2)C(=O)N[C@H](Cc2ccc(C(N)=O)cc2)C(=O)N[C@@H](CCCCN)C(=O)N1C` [Compound 75, H-Cpa-[DCys-NMeTyr-DPhe(4-carbamoyl)-Lys-NMeThr-Cys]-DTyr-NH2] (H-[Phe(4-Cl)][dC][NMeY][dPhe(4-CONH2)]K[NMeT]C[dY]-NH2; disulfide 2-7), the IC50 was above 1000 nM.

`C[C@@H](O)[C@@H]1NC(=O)[C@H](CCCCN)NC(=O)[C@@H](Cc2ccc(C(N)=O)cc2)NC(=O)[C@H](Cc2ccc(O)cc2)NC(=O)[C@H](NC(=O)[C@@H](N)Cc2ccc(Cl)cc2)CSSC[C@@H](C(=O)N[C@H](Cc2ccc(O)cc2)C(N)=O)N(C)C1=O` [Compound 76, H-Cpa-[DCys- Tyr-DPhe (4-carbamoyl)- Lys-Thr-NMeCys]- DTyr-NH2] (H-[Phe(4-Cl)][dC]Y[dPhe(4-CONH2)]KT[NMeC][dY]-NH2; disulfide 2-7) showed an IC50 of 400 nM.
